# Source: patent publication EP0435221A2, “New benzanthracene compound and a process for preparing the same” (HOECHST JAPAN LIMITED, priority 1989, dated 1991)
# System: mouse leukemia L-1210 cells
# Experiment: inhibitory effect on the proliferation of mouse leukemia L-1210 cells
# Assay type: cell-based
# Details: L1210; 50% inhibitory concentration; proliferation of mouse leukemia L-1210 cells (1 x 10⁶ cells/ml)
# Protocol: Compound 683 of the present invention, as well as the structurally related X-14881 D, was tested for inhibitory effect on the proliferation of mouse leukemia L-1210 cells(1 x 10⁶ cells/ml). The 50% inhibitory concentration values thereof are as follows.
row,IC50,SMILES
1,3 µg/mL,COc1cccc2c1C(O)C13C=CC4=C(C(=O)CC(C)C4O)C1(O3)C2O (centres unmarked) [Compound 683]
2,> 100 µg/mL,COc1cccc2c1C(O)C1(O)C=CC3=C(C(=O)CC(C)C3O)C1C2O (centres unmarked) [X-14881 D]
